Experimental data as given in patent publication US7371571B2, “Recombinant mycobacteria overexpressing D-alanine ligase gene and uses therefore” (priority 2002, dated 2008).
In brackets after ≈: the same amount, converted by molar mass. Several values for one entry are separate records, joined by “and”; a condition that tells them apart may be missing. Identical values can stand only once. Entries after “also recorded” stand apart in the source; their conditions may differ. Like-named read-outs stand apart in the source and are kept apart here.

Columns and labels:
Ddl = target: T1, Ddl (UniProt Q47758); settings: Streptococcus faecalis purified Ddl; cited from earlier work
T1 sequence (Q47758 1-348): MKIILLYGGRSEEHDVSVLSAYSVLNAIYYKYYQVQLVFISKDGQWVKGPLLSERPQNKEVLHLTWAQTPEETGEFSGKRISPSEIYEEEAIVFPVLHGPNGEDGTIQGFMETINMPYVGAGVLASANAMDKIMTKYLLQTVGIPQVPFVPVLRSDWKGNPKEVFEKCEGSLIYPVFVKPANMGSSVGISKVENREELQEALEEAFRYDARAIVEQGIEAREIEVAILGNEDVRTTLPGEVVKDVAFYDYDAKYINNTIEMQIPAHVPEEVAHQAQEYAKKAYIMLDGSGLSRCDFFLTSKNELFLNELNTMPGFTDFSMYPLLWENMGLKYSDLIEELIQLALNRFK

M. smegmatis Ddl = M. smegmatis Ddl (Mycolicibacterium smegmatis, UniProt Q9ZGN0); assay type: biochemical, Mycobacterium smegmatis
M. smegmatis GPM14 = experiment: Intracellular alanine pools by reverse-phase HPLC; settings: 75 μg ml^−1 DCS, 2 h
Experimental: (§2) M. smegmatis cells were grown in minimal medium until exponential phase and split into two subcultures, and DCS was added to a final concentration of 75 μg ml^−1 to one of the subcultures. After 2 h of incubation, cells were harvested at 4° C. by centrifugation, washed twice with ice-cold double-distilled water, and concentrated 50-fold. Cells were sonicated in a salt-ice-water bath with a Vibra-Cell model VC600 sonicator (Sonic and Materials, Inc., Danbury, Conn.) for 10 min at 80% power output and 50% duty cycle. The lysate was centrifuged at 4° C. for 30 min at 30,000×g to remove bacterial debris. Protein was removed from the supernatant by serial passages through YM-10 and YM-3 Centricon concentrators (Millipore Corp., Bedford, Mass.). Determination of the abundance of individual amino acids was performed at the Amino Acid Geochronology Laboratory of Northern Arizona University (Flagstaff, Ariz.) by a reverse-phase high-performance liquid chromatography (HPLC) procedure described previously (Kaufman and Manley, 1998). This procedure is able to detect nine pairs of L- and D-amino acids in the subpicomole range. […] Thus, the abundance of each amino acid was calculated as the area under the corresponding peak and expressed relative to this pool.

M. smegmatis GPM260 = experiment: Intracellular alanine pools by reverse-phase HPLC; settings: 75 μg ml^−1 DCS, 2 h
Experimental: as §2

[1] = tested on: M. smegmatis GPM265 (overproducing M. tuberculosis Ddl); experiment: microbe, parasite or virus in culture; assay type: cell-based, Mycobacterium smegmatis; settings: for MIC: Mycolicibacterium smegmatis, 48 h
M. tuberculosis Ddl = target: T2, M. tuberculosis Ddl (Mycobacterium tuberculosis, UniProt P9WP31); assay type: biochemical
T2 sequence (P9WP31 1-373): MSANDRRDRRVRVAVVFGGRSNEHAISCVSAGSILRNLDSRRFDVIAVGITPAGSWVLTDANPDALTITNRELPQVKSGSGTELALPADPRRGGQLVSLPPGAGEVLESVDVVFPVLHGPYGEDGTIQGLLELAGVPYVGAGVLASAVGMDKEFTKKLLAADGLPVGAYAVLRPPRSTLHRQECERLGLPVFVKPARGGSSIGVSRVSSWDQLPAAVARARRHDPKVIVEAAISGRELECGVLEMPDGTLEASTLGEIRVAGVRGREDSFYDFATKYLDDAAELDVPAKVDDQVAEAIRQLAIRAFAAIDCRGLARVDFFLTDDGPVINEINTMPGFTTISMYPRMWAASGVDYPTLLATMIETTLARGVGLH

M. smegmatis strains [2] = experiment: Inhibition of colony formation on agar; assay type: cell-based, Mycobacterium smegmatis; settings: agar with 0 to 1,200 μg of DCS ml^−1, 5 days
Experimental: (§1) MICs were determined by a microdilution method described previously (Takiff et al., 1996) with minor modifications. Briefly, M. smegmatis cells were grown in M-ADC-TW to mid-exponential phase (optical density at 600 nm, 0.6 to 1.0). Approximately 10^5 CFU in 0.1 ml were inoculated in triplicate onto 96-well microplates containing serial twofold dilutions of inhibitory compounds. Plates were incubated at 37° C. and examined daily. The MIC was defined as the minimal concentration of the drug or inhibitor that prevented visible bacterial growth after 48 h. Each MIC represents the consistent result from at least three independent cultures. Amikacin, DCS, βCDA, ethambutol, and vancomycin (all from Sigma) were prepared in sterile deionized water. Rifabutin (Amersham Pharmacia) was prepared in dimethyl sulfoxide (Fisher Scientific, St. Louis, Mo.). All further dilutions of each antibiotic were prepared in growth medium. Inhibition of colony formation by DCS was evaluated as described previously in Caceres et al., (1997), which is incorporated herein by reference. Appropriate dilutions of exponentially growing M. smegmatis cells were plated onto agar containing 0 to 1,200 μg of DCS ml^−1. Colonies were counted after 5 days of incubation at 37° C. Statistical analysis was conducted using the SAS general linear model procedure (SAS Institute, Cary, N.C.).

M. smegmatis mc^2155 [3] = experiment: MIC by microdilution method; assay type: cell-based, Mycobacterium smegmatis
M. smegmatis GPM259 = experiment: Intracellular alanine pools by reverse-phase HPLC; settings: 75 μg ml^−1 DCS, 2 h
Experimental: as §2

M. smegmatis mc^2155 [4] = experiment: Intracellular alanine pools by reverse-phase HPLC; settings: 75 μg ml^−1 DCS, 2 h
Experimental: as §2

[5] = tested on: M. smegmatis GPM259 (overproducing Ddl); experiment: MIC by microdilution method; assay type: cell-based, Mycobacterium smegmatis; settings: for MIC: Mycolicibacterium smegmatis, 48 h
Experimental: as §1

[6] = tested on: M. smegmatis GPM260 (overproducing both Alr and Ddl); experiment: MIC by microdilution method; assay type: cell-based, Mycobacterium smegmatis; settings: for MIC: Mycolicibacterium smegmatis, M-ADC-TW, 48 h; for MIC / susceptibility of GPM260 compared with parent strain GPM14: strain GPM260
Experimental: as §1

[7] = tested on: M. smegmatis GPM14 (overproducing Alr); experiment: MIC by microdilution method; assay type: cell-based, Mycobacterium smegmatis; settings: for MIC: Mycolicibacterium smegmatis, 48 h
Experimental: as §1

M. smegmatis GPM2 = experiment: MIC by microdilution method; assay type: cell-based, Mycobacterium smegmatis; settings: Mycolicibacterium smegmatis
Alr = settings: Streptococcus faecalis purified Alr; cited from earlier work
M. smegmatis strains [8] = experiment: Drug susceptibility compared across strains; assay type: cell-based, Mycobacterium smegmatis; settings: mc^2155, GPM259, GPM265, GPM14

M. smegmatis Ddl, sequence (Q9ZGN0 whole entry): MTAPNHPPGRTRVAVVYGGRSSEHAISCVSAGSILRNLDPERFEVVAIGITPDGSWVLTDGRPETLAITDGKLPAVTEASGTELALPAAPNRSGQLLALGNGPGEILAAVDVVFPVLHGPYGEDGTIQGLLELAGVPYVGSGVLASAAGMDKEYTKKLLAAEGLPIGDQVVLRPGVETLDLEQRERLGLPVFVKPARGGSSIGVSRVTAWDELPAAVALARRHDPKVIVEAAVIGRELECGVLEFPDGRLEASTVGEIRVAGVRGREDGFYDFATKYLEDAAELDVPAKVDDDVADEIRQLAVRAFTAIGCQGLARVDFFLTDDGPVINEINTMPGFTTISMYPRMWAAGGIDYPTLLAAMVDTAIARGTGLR

**Q.** Which Ki (Ddl) does the source give for `NC1CONC1=O` (stereo not drawn) [DCS, 4-amino-3-isoxazolidinone] here?
**A.** Its Ki is 900 µM.

**Q.** And the Ddl activity inhibited (M. smegmatis Ddl)?
**A.** The Ddl activity inhibited was 10 to 15%.

**Q.** And the “Ddl enzyme activity inhibited” value (M. smegmatis Ddl)?
**A.** The value was “Approximately 50%”.

**Q.** And the “inhibition of Ddl enzyme” value (M. smegmatis Ddl)?
**A.** Its value is “inhibited by DCS in a concentration-dependent manner”.

**Q.** What about the “excess of L- over D-alanine” value (M. smegmatis GPM14) of the same compound?
**A.** The value was “three-fold”.

**Q.** What about the “excess of L-alanine” value (M. smegmatis GPM260) of the same compound?
**A.** Its value is 18- to 20 fold and ~20 fold.

**Q.** And the “MIC relative to that for mc^2155” value [1]?
**A.** Its value is “twofold greater”.

**Q.** What about the MIC [1] of the same compound?
**A.** Its MIC is 150 µg/mL (≈ 1470 µM).

**Q.** And the “inhibition of Ddl enzyme” value (M. tuberculosis Ddl)?
**A.** Its value is “inhibited by DCS in a concentration-dependent manner”.

**Q.** And the “percentage of inhibition higher than in mc^2155 and GPM259 extracts” value (M. tuberculosis Ddl)?
**A.** The value was “approximately 10%”.

**Q.** What about the “resistance of GPM259 and GPM265 on solid agar” value (M. smegmatis strains [2]) of the same compound?
**A.** Its value is “more resistant to DCS than the wild-type mc^2155 but less resistant than the Alr-overproducing strain GPM14”.

**Q.** And the MIC (M. smegmatis mc^2155 [3]; Mycolicibacterium smegmatis, strain mc^2155, M-ADC-TW, 48 h, read-out: MIC)?
**A.** Its MIC is 75 µg/mL (≈ 735 µM).

**Q.** And the MIC (M. smegmatis mc^2155 [3]; strain mc^2155, M-ADC-TW, 48 h)?
**A.** Its MIC is 75.0 µg/mL (≈ 735 µM).

**Q.** And the “excess of L-alanine” value (M. smegmatis GPM259)?
**A.** The value was 18- to 20 fold and ~20 fold.

**Q.** And the “excess of L- over D-alanine” value (M. smegmatis mc^2155 [4])?
**A.** Its value is “eightfold”.

**Q.** What about the “increase of L-alanine-to-D-alanine molar ratio” value (M. smegmatis mc^2155 [4]; versus untreated) of the same compound?
**A.** Its value is 3.5 fold.

**Q.** What about the MIC [5] of the same compound?
**A.** Its MIC is 150 µg/mL (≈ 1470 µM).

**Q.** And the “MIC relative to that for mc^2155” value ([5]; strain GPM259)?
**A.** Its value is “twofold greater”.

**Q.** What about the MIC [6] of the same compound?
**A.** The MIC was 600 µg/mL (≈ 5880 µM).

**Q.** And the level of resistance ([6]; strain overexpressing both the alr and ddl genes)?
**A.** Its level of resistance is “eightfold-higher”.

**Q.** What about the MIC [7] of the same compound?
**A.** The MIC was 300 µg/mL (≈ 2940 µM).

**Q.** And the MIC (M. smegmatis GPM2; strain GPM2, M-ADC-TW, 48 h, read-out: MIC)?
**A.** The MIC was 75 µg/mL (≈ 735 µM).

**Q.** And the Ki (Alr)?
**A.** Its Ki is 20 µM.

**Q.** What does the source list for `NCC[C@H](O)C(=O)N[C@@H]1C[C@H](N)[C@@H](O[C@H]2O[C@H](CN)[C@@H](O)[C@H](O)[C@H]2O)[C@H](O)[C@H]1O[C@H]1O[C@H](CO)[C@@H](O)[C@H](N)[C@H]1O` [amikacin]?
**A.** susceptibility of GPM260 compared with parent strain GPM14 [6]: identical; susceptibilities of strains overproducing Alr and/or Ddl compared with wild type (M. smegmatis strains [8]): identical

**Q.** Which results are given for `CC[C@@H](CO)NCCN[C@@H](CC)CO` [ethambutol]?
**A.** susceptibility of GPM260 compared with parent strain GPM14 [6]: identical; susceptibilities of strains overproducing Alr and/or Ddl compared with wild type (M. smegmatis strains [8]): identical

**Q.** Which “susceptibility of GPM260 compared with parent strain GPM14” value [6] does the source give for `CO[C@H]1/C=C/O[C@@]2(C)Oc3c(C)c(O)c4c(c3C2=O)C2=NC3(CCN(CC(C)C)CC3)NC2=C(NC(=O)/C(C)=C\C=C\[C@H](C)[C@H](O)[C@@H](C)[C@@H](O)[C@@H](C)[C@H](OC(C)=O)[C@@H]1C)C4=O` [rifabutin] here?
**A.** The value was “identical”.

**Q.** And the “susceptibilities of strains overproducing Alr and/or Ddl compared with wild type” value (M. smegmatis strains [8])?
**A.** The value was “identical”.

**Q.** For `CN[C@H](CC(C)C)C(=O)N[C@H]1C(=O)N[C@@H](CC(N)=O)C(=O)N[C@H]2C(=O)N[C@H]3C(=O)N[C@H](C(=O)N[C@H](C(=O)O)c4cc(O)cc(O)c4-c4cc3ccc4O)[C@H](O)c3ccc(c(Cl)c3)Oc3cc2cc(c3O[C@@H]2O[C@H](CO)[C@@H](O)[C@H](O)[C@H]2O[C@H]2C[C@](C)(N)[C@H](O)[C@H](C)O2)Oc2ccc(cc2Cl)[C@H]1O` [vancomycin], which “susceptibility of GPM260 compared with parent strain GPM14” value [6] is on record?
**A.** Its value is “identical”.

**Q.** What about the “susceptibilities of strains overproducing Alr and/or Ddl compared with wild type” value (M. smegmatis strains [8]) of the same compound?
**A.** The value was “does not have an effect on the susceptibility; also recorded: identical”.

**Q.** For `N[C@H](CCl)C(=O)O` [βCDA, β-chloro-D-alanine], which MIC [1] is on record?
**A.** The MIC was 25 µg/mL (≈ 202 µM).

**Q.** And the MIC (M. smegmatis mc^2155 [3]; Mycolicibacterium smegmatis, MC^2155, 48 h)?
**A.** Its MIC is 25 µg/mL (≈ 202 µM).

**Q.** And the MIC ([5]; strain GPM259, M-ADC-TW, read-out: MIC)?
**A.** The MIC was 25 µg/mL (≈ 202 µM).

**Q.** What about the MIC [6] of the same compound?
**A.** Its MIC is 100 µg/mL (≈ 809 µM).

**Q.** And the “susceptibility of GPM260 compared with parent strain GPM14” value [6]?
**A.** Its value is “identical”.

**Q.** And the MIC [7]?
**A.** The MIC was 100 µg/mL (≈ 809 µM).

**Q.** What about the “MIC relative to those for strains with wild-type levels of Alr” value ([7]; strain GPM14) of the same compound?
**A.** Its value is “fourfold higher”.

**Q.** What about the MIC (M. smegmatis GPM2; GPM2, 48 h) of the same compound?
**A.** The MIC was 25 µg/mL (≈ 202 µM).
